Here are results for 3 compounds from patent US8003082B2, “Photostable organic sunscreen composition” (Merck Patent GmbH, priority 2003, dated 2011).

Where only a bound is given, the exact number is not on record here.

The nature of data set [1]: Solubility of Avobenzone in Oxynex ST + HMS on storage. On the set-up: key: Ppt = precipitate. In kind it is physicochemical.
Experimental: The solubility of Avobenzone was tested in various ratios of Oxynex® ST and HMS.
Data set [2] is described as follows: In vitro critical wavelength and SPF. Conditions: Avobenzone (2%) in the presence of HMS (6%) and Oxynex ST (2%). Here is the method:
The target SPF range can be achieved with a combination of both inorganic and organic chromophoric compounds. SPF is determined by techniques well known in the art, on human skin as described in the Federal Register, Aug. 25, 1978, Vol. 43, No. 166, pages 38259-38269 (Sunscreen Drug Products for Over-The-Counter Human Use, Food and Drug Administration). SPF values can also be approximated using in-vitro models as described, for example, in J. Soc. Cosmet. Chem. 44:127-133 (May/June 1989).

Data set [3] can be described thus: Solubility of Avobenzone in Oxynex ST + OMC on storage. In kind it is physicochemical. Also noted: key: Ppt = precipitate.
Data set [4] in a line: Photostabilization of Avobenzone in formulation, thin films between glass slides under UV-B light, loss in absorption. In kind it is physicochemical. On the procedure:
Photostabilization of Avobenzone (in formulation) was performed using thin films (about 50-100μ thick, transmission signals in the non-absorbing regions must be above 85%) of formulated materials placed between two glass slides and then irradiated under UV-B light (Q-U-V Accelerated Weather Tester, The Q Panel Company). Photodegradation of Avobenzone was calculated from the relative loss in absorption of Avobenzone in formulated products before and after irradiation. 1 hour irradiation under UV-B light is equal to about 1.4 MED (minimal erythemal dose). A Beckman Coulter DU-640 spectrophotometer at a scan speed of 120 nm/min was used for this study. All spectra were recorded from 200 to 600 nm.

Data set [5] in a line: Diphenylpicryl Hydrazide (DPPH) antioxidant test. In kind it is biochemical. Conditions: DPPH test method. On the procedure:
Di-2-ethylhexyl-3,5-dimethoxy-4-hydroxy-benzalmalonate is a yellow viscous liquid having a λmax at 332 nm (MeOH, εmax 18,600 cm^−1 mol^−1) or 337 nm (EtOH:H2O/70:30, εmax 19,840 cm^−1 mol^−1).
A DPPH concentrate (2.5×) of 25 mg of 1,1-Diphenyl-2-Picyrl-Hydrazyl ACS#1898-66-4 (Sigma #D-9132, lot 99H3601) dissolved in 250 mL ethanol (USP), is prepared fresh on the measurement date. A DPPH working solution is then prepared by diluting 100 mL of this concentrate to a final volume of 250 mL (100 μM/mL). A blank 13×100 mm borosilicate glass screw top tube of ethanol (USP) is used to zero the spectrometer (Milton Roy, Spectronic 20+) at 517 nm and a control tube of DPPH working solution is measured under identical conditions, and taken as 0% activity. […] After 20 minutes, the absorbance of each sample is read at 517 nm.
The percent reducing activity (% RA) is calculated using the following equation: […]
Where A(0) is the absorbance value of the DPPH working solution at 517 nm zeroed against an ethanol blank and A(20) is the absorbance at 517 nm, 20 minutes after combining the antioxidant with the DPPH working solution.
The concentration of antioxidant (mg/ml) in the final assay mixture is calculated based on the dilution of respective aliquots of each compound in the final assay volume and % RA tabulated and plotted as percent activity at each concentration in the dilution series: […]

`COc1ccc(C(=O)CC(=O)c2ccc(C(C)(C)C)cc2)cc1` [Avobenzone, 4-(tert-butyl)-4′-methoxydibenzoylmethane]: the “Solubility of Avobenzone in the Oxynex ® ST Photostabilizer + HMS” value was “Clear” in data set [1] (Avobenzone/Oxynex ST/HMS 15/15/70, storage 4° C., 1 week); “Crystal?” in data set [1] (Avobenzone/Oxynex ST/HMS 15/15/70, storage 4° C., 2 weeks); “Crystal?” in data set [1] (Avobenzone/Oxynex ST/HMS 15/15/70, storage 4° C., 3 weeks); “Ppt” in data set [1] (Avobenzone/Oxynex ST/HMS 15/15/70, storage 4° C., 6 weeks); “Clear” in data set [1] (Avobenzone/Oxynex ST/HMS 15/15/70, storage 4° C., 24 hr); “Clear” in data set [1] (Avobenzone/Oxynex ST/HMS 15/15/70, storage RT, 1 week). Further, the “Solubility of Avobenzone in the Oxynex ® ST Photostabilizer + HMS” value in data set [1] (Avobenzone/Oxynex ST/HMS 15/15/70, storage RT, 2 weeks) is reported as “Clear”; in data set [1] (Avobenzone/Oxynex ST/HMS 15/15/70, storage RT, 3 weeks), “Clear”; in data set [1] (Avobenzone/Oxynex ST/HMS 15/15/70, storage RT, 6 weeks) it was “Clear”; in data set [1] (Avobenzone/Oxynex ST/HMS 15/15/70, storage RT, 24 hr) it was “Clear”; in data set [1] (Avobenzone/Oxynex ST/HMS 20/20/60, storage 4° C., 1 week), “Clear”; in data set [1] (Avobenzone/Oxynex ST/HMS 20/20/60, storage 4° C., 2 weeks), “Crystal?”. In addition, the “Solubility of Avobenzone in the Oxynex ® ST Photostabilizer + HMS” value in data set [1] (Avobenzone/Oxynex ST/HMS 20/20/60, storage 4° C., 3 weeks) is “Crystal?”; in data set [1] (Avobenzone/Oxynex ST/HMS 20/20/60, storage 4° C., 6 weeks), “Ppt”; in data set [1] (Avobenzone/Oxynex ST/HMS 20/20/60, storage 4° C., 24 hr) it was “Clear”; in data set [1] (Avobenzone/Oxynex ST/HMS 20/20/60, storage RT, 1 week) it was “Clear”; in data set [1] (Avobenzone/Oxynex ST/HMS 20/20/60, storage RT, 2 weeks), “Clear”; in data set [1] (Avobenzone/Oxynex ST/HMS 20/20/60, storage RT, 3 weeks), “Clear”. The “Solubility of Avobenzone in the Oxynex ® ST Photostabilizer + HMS” value in data set [1] (Avobenzone/Oxynex ST/HMS 20/20/60, storage RT, 6 weeks) was “Clear”; in data set [1] (Avobenzone/Oxynex ST/HMS 20/20/60, storage RT, 24 hr), “Clear”; in data set [1] (Avobenzone/Oxynex ST/HMS 25/25/50, storage 4° C., 1 week), “Ppt”; in data set [1] (Avobenzone/Oxynex ST/HMS 25/25/50, storage 4° C., 2 weeks), “Ppt”; in data set [1] (Avobenzone/Oxynex ST/HMS 25/25/50, storage 4° C., 3 weeks) it was “Ppt”; in data set [1] (Avobenzone/Oxynex ST/HMS 25/25/50, storage 4° C., 6 weeks) it was “Ppt”. Besides, the “Solubility of Avobenzone in the Oxynex ® ST Photostabilizer + HMS” value is reported as “Clear” in data set [1] (Avobenzone/Oxynex ST/HMS 25/25/50, storage 4° C., 24 hr); “Clear” in data set [1] (Avobenzone/Oxynex ST/HMS 25/25/50, storage RT, 1 week); “Crystal?” in data set [1] (Avobenzone/Oxynex ST/HMS 25/25/50, storage RT, 2 weeks); “Ppt” in data set [1] (Avobenzone/Oxynex ST/HMS 25/25/50, storage RT, 3 weeks); “Ppt” in data set [1] (Avobenzone/Oxynex ST/HMS 25/25/50, storage RT, 6 weeks); “Clear” in data set [1] (Avobenzone/Oxynex ST/HMS 25/25/50, storage RT, 24 hr). Further, the “Solubility of Avobenzone in the Oxynex ® ST Photostabilizer + HMS” value in data set [1] (Avobenzone/Oxynex ST/HMS 30/30/40, storage 4° C., 1 week) is “Ppt”; in data set [1] (Avobenzone/Oxynex ST/HMS 30/30/40, storage 4° C., 2 weeks), “Ppt”; in data set [1] (Avobenzone/Oxynex ST/HMS 30/30/40, storage 4° C., 3 weeks), “Ppt”; in data set [1] (Avobenzone/Oxynex ST/HMS 30/30/40, storage 4° C., 6 weeks) it was “Ppt”; in data set [1] (Avobenzone/Oxynex ST/HMS 30/30/40, storage 4° C., 24 hr), “Clear”; in data set [1] (Avobenzone/Oxynex ST/HMS 30/30/40, storage RT, 1 week), “Ppt”. In addition, the “Solubility of Avobenzone in the Oxynex ® ST Photostabilizer + HMS” value in data set [1] (Avobenzone/Oxynex ST/HMS 30/30/40, storage RT, 2 weeks) is recorded as “Ppt”; in data set [1] (Avobenzone/Oxynex ST/HMS 30/30/40, storage RT, 3 weeks), “Ppt”; in data set [1] (Avobenzone/Oxynex ST/HMS 30/30/40, storage RT, 6 weeks) it was “Ppt”; in data set [1] (Avobenzone/Oxynex ST/HMS 30/30/40, storage RT, 24 hr), “Clear”. In data set [2], the SPF is greater than 30. In data set [2], the critical wavelength result was “appropriate”. Further, the “Solubility of Avobenzone in the Oxynex ® ST Photostabilizer + OMC” value is “Clear” in data set [3] (Avobenzone/Oxynex ST/OMC 20/20/60, storage 4° C., 1 week); “Crystal?” in data set [3] (Avobenzone/Oxynex ST/OMC 20/20/60, storage 4° C., 2 weeks); “Clear” in data set [3] (Avobenzone/Oxynex ST/OMC 20/20/60, storage 4° C., 48 hr); “Clear” in data set [3] (Avobenzone/Oxynex ST/OMC 20/20/60, storage RT, 1 week); “Clear” in data set [3] (Avobenzone/Oxynex ST/OMC 20/20/60, storage RT, 2 weeks); “Clear” in data set [3] (Avobenzone/Oxynex ST/OMC 20/20/60, storage RT, 48 hr). Also, the “Solubility of Avobenzone in the Oxynex ® ST Photostabilizer + OMC” value is on record as “Ppt” in data set [3] (Avobenzone/Oxynex ST/OMC 25/25/50, storage 4° C., 1 week); “Ppt” in data set [3] (Avobenzone/Oxynex ST/OMC 25/25/50, storage 4° C., 2 weeks); “Clear” in data set [3] (Avobenzone/Oxynex ST/OMC 25/25/50, storage 4° C., 48 hr); “Clear” in data set [3] (Avobenzone/Oxynex ST/OMC 25/25/50, storage RT, 1 week); “Crystal?” in data set [3] (Avobenzone/Oxynex ST/OMC 25/25/50, storage RT, 2 weeks); “Clear” in data set [3] (Avobenzone/Oxynex ST/OMC 25/25/50, storage RT, 48 hr). The “Solubility of Avobenzone in the Oxynex ® ST Photostabilizer + OMC” value in data set [3] (Avobenzone/Oxynex ST/OMC 30/20/50, storage 4° C., 48 hr) is reported as “Few”; in data set [3] (Avobenzone/Oxynex ST/OMC 30/20/50, storage RT, 48 hr) it was “Few”. For the same compound, the Avobenzone stability in data set [4] was 24%.
For `CCCCC(CC)COC(=O)c1ccc2cc(C(=O)OCC(CC)CCCC)ccc2c1` (stereo not drawn) [TQ, Di-2-ethylhexyl-napthylate], the “stabilization of Avobenzone” value in data set [4] (combined with Homosalate, ratio (w/w) 2:6:2) is given as “failed to stabilize”. In data set [4] (photostabilizer used alone), the “effect on the photostabilization of Avobenzone” value was “practically no effect”.
As for `CCCCC(CC)COC(=O)C(=Cc1cc(OC)c(O)c(OC)c1)C(=O)OCC(CC)CCCC` (stereo not drawn) [Oxynex ST, Di-(2-Ethylhexyl)-3,5-dimethoxy-4-hydroxy benzylidene malonate], the “antioxidant activity (IC50)” value in data set [5] was 85 ± 8 µg/mL.
